{"source": "patent US12371664B2", "about": "“Medium for direct differentiation of pluripotent stem cell-derived mesenchymal stem cell, method for preparing mesenchymal stem cell by using same, and mesenchymal stem cell prepared thereby” (CHA BIOTECH CO., LTD., priority 2018, dated 2025)", "key": {"[1]": {"test_system": "transcription factor required for endodermal differentiation / mesodermal differentiation", "settings": "background art; cited from earlier work"}, "[2]": {"test_system": "human embryonic stem cells", "assay": "Analysis of cytomorphological features (spindle shape) under a phase-contrast microscope", "assay_type": "cell-based", "settings": "FIG. 10; 10 μM RS1, 10 μM Y27632, 1 μM SB431542 as applicable", "text": "For analysis of cytomorphological features of mesenchymal stem cells obtained in Example 1 and Comparative Example 1, a mesenchymal stem cell-specific proliferation pattern (spindle shape) was identified under a phase-contrast microscope (Nikon TE-2000), and the results are shown in FIGS. 2 and 3, respectively.\nFor analysis of cytomorphological difference by treatment with the DNA repair agent or the ROCK inhibitor alone on the basis of period, morphologies of cells of Example 1 and Comparative Examples 2 and 3 were analyzed in the same manner as in Experimental Example 1. As a control, cells treated with the TGF-β inhibitor SB431542 alone without being treated with both the DNA repair agent and the ROCK inhibitor were used, and the results are shown in FIG. 10."}}, "data": [{"molecule": "NC(=O)c1ccc(-c2nc(-c3ccc4c(c3)OCO4)c(-c3ccccn3)[nH]2)cc1.O", "note": "[SB431542, 4-[4-(1,3-benzodioxol-5-yl)-5-(2-pyridinyl)-1H-imidazol-2-yl]-benzamide hydrate]", "values": [{"measurement": "concentration having effects on inhibiting the transcription factor for endodermal differentiation and increasing that for mesodermal differentiation", "setting": "[1]", "result": "≥ 1", "unit": "µM"}, {"measurement": "cytomorphological observation (mesenchymal stem cell proliferation pattern of the spindle shape)", "setting": "[2]", "result": "most of the cells disappeared on the 30th day and uniformity deteriorated"}]}]}
